Measurements published in PMC4387272, “Pharmacokinetic, pharmacodynamic and biomarker evaluation of transforming growth factor-β receptor I kinase inhibitor, galunisertib, in phase 1 study in patients with advanced cancer” (Investigational new drugs, 2014).
Values joined by “and” are separate entries in the source; they are usually repeats but may differ in a detail not shown here. Equal entries are not always repeated. Marks after values point to notes of the source that are not given here.

How the values were obtained:
glioma = assay: Radiographic response / clinical benefit (RECIST, Macdonald criteria) in first-in-human dose study; assay type: in vivo; details: for Cycles (n) (best response): individual glioma patients with sequenced tumor; for CR/PR/SD ≥6 cycles, Low grade/secondary glioma / CR/PR/SD ≥6 cycles, Primary glioma: number of patients; for Clinical Benefit / No Clinical Benefit: Parts A and B
Method: Starting with Cohort 3, only patients with relapsed and progressive glioma were eligible for this study. All patients were assessed for radiographic responses using Response Evaluation Criteria in Solid Tumors (RECIST) and, for glioma patients, using Macdonald criteria. All patients had to have an Eastern Cooperative Oncology Group performance status of ≤2. Patients were required to have adequate hematologic, hepatic, and renal function and discontinue all previous therapies for cancer at least 4 weeks prior to study enrollment. Exclusion criteria included medically uncontrolled cardiovascular illness, electrocardiogram anomalies, serious pre-existing medical conditions, and any unapproved therapy.
• Part A was a dose escalation study using galunisertib monotherapy administered initially to patients with advanced or metastatic cancer as a daily continuous dosing. Starting with Cohort 3 and for the remainder of the study, patients received galunisertib on an intermittent dose regimen of 14 days on/14 days off for a 28-day cycle. • Part B was a safety study using galunisertib on an intermittent dose regimen at 160 mg/day (80 mg twice daily [BID]) and 300 mg/day (150 mg BID) in combination with lomustine given once every 6 weeks in patients with recurrent malignant glioma who had previously failed approved treatments. • Part C was a relative bioavailability (RBA) crossover study conducted at only one center to assess two new formulations (publication in preparation). All patients were then eligible to continue on 300 mg/day dosing. In this part of the study, patients with different tumor histologies were eligible to participate; the majority of patients had glioma. The only results from Part C presented in this publication are the results of the T cell subset examination. Other results will be published elsewhere.
A power model was fitted to PK parameter estimates Cmax and AUC(0–24) to assess the extent of dose proportionality. Clinical benefit in this study has been defined as a patient with either a complete response (CR), partial response (PR), and stable disease (SD) ≥6 cycles. MAIP results from plasma samples taken at baseline were compared between patients completing >6 cycles and ≤6 cycles using ANOVA. The analysis included controlling the false discovery rate to 30 % using the Benjamini-Hochberg method. Boxplots showing the distributions at baseline of the potentially prognostic markers are provided. Observed TGF-β-stimulated pSMAD2 (pSMAD2^+) in PBMCs was normalized by TGF-β-stimulated tSMAD2 [(tSMAD2^+) ^0.6[9, 10]] prior to determining the minimum normalized pSMAD2^+ and calculating percentage inhibition post-baseline for each patient. Baseline and minimum post-baseline values for each patient together with maximum percentage inhibition are presented on a line and scatter plot for each patient in Cohort 3 and summary statistics by time point provided from a standard mixed effects regression model, fitting log normalized pSMAD2^+ to the fixed effects of log baseline normalized pSMAD2^+, nominal time point, dose and their interaction and patient as a random effect.
In order to interpret protein and gene expression as potential prognostic factors we used the concept of clinical benefit based on radiographic response and/or stable disease for ≥6 cycles (Table 3).

ID1 and CD44 = test system: ID1 and CD44; parameters: method as in PMID 21156287; details: 1 patient, surgical re-resection during off-period of intermittent dosing; cited from earlier work
[1] = Part B, in combination with lomustine
[2] = Part B, in combination with lomustine, n=26
[3] = Primary glioma (n=13), IDH1/2 mutation
[4] = Primary glioma (n=13), Other mutation
[5] = Secondary or low grade glioma (n=8), IDH1/2 mutation
[6] = Secondary or low grade glioma (n=8), Other mutation

**Q.** What does the source list for Cc1cccc(-c2nn3c(c2-c2ccnc4ccc(C(N)=O)cc24)CCC3)n1 [galunisertib]?
**A.** patients with primary glioblastoma showing radiographic responses or SD ≥6 cycles (glioma; 3/13 patients, no IDH1 or IDH2 mutation): 23%; patients with tumors not containing the EGFR variant treated for ≥6 cycles (glioma; 7/13 patients): 54%; patients with tumors containing EGFR variants treated for <6 cycles (glioma; 8/8 patients (2 in Part A and 6 in Part B)): 100%; patients with clinical benefit (CR, PR or SD ≥6 cycles) (glioma; 12 of 79 patients, all parts, all in glioma): 15%; cycles treated, patients still receiving galunisertib as of June 2014 (glioma; Part A, 2 individual patients): 73 cycles and 55 cycles; Cycles on study treatment, median (range) (glioma; Part A, monotherapy, N=39): 2 (1–46); Cycles (n) (best response) (glioma; Part A, monotherapy): 3 and 2 and 1 and 29 (CR) and 13 (PR) and 22 (PR) and 46 (CR) and 40 (SD); CR/PR (glioma; Part A, monotherapy, n=30): 5 (16.7) n (%); CR/PR/SD ≥6 cycles (glioma; Part A, monotherapy, n=30): 6 n (%) and 6 (20.0) n (%); On study treatment at study closure in 2012 (glioma; Part A, monotherapy, n=30): 2 (6.7) n (%); CR/PR/SD ≥6 cycles, Low grade/secondary glioma (glioma; Part A, monotherapy): 3; CR/PR/SD ≥6 cycles, Primary glioma (glioma; Part A, monotherapy): 3; cycles treated, patient still receiving galunisertib as of June 2014 (glioma; Part B, 1 patient): 48 cycles; Cycles on study treatment, median (range) (glioma; Part B, in combination with lomustine, N=26): 2 (1–22); Cycles (n) (best response) (glioma; [1]): 10 (PR) and 12 (SD) and 2 and 4 and 1; CR/PR (glioma; [2]): 2 (7.7) n (%); CR/PR/SD ≥6 cycles (glioma; [2]): 6 ^* n (%) and 6 (23.1) ^* n (%); On study treatment at study closure in 2012 (glioma; [2]): 1 (3.8) n (%); CR/PR/SD ≥6 cycles, Low grade/secondary glioma (glioma; [1]): 4; CR/PR/SD ≥6 cycles, Primary glioma (glioma; [1]): 2; Clinical Benefit (glioma; [3]): 0/13; No Clinical Benefit (glioma; [3]): 0/13; Clinical Benefit (glioma; [4]): 3/13; No Clinical Benefit (glioma; [4]): 10/13; Clinical Benefit (glioma; [5]): 4/8; No Clinical Benefit (glioma; [5]): 1/8; Clinical Benefit (glioma; [6]): 0/8; No Clinical Benefit (glioma; [6]): 3/8; patients with clinical benefit (CR/PR and SD ≥6 cycles) among patients with IDH1/2 mutation (glioma; of the 5 patients with IDH1/2 mutation): 4 patients; expression of ID1 and CD44 in tumor tissue after treatment (ID1 and CD44): reduced
